Measurements published in patent US4288439A, “Anti-ulcer treatment method” (priority 1978, dated 1981).

How the values were obtained:
[1] = stress-induced erosion test (Senay & Levine), anti-ulcer activity; format: in vivo; conditions: Dose 100 mg/kg
Protocol: (§1) Anti-ulcer activity was determined by the stress-induced erosion test of Senay & Levine, Proc. Soc. Exp. Biol. Med., 124, 1221-3(1967) and anti-secretory activity by the test of H. Shay, D. Sun and H. Greenstein, Gastroenterology, 1954, 26,903-13 as exemplified by Beattie et al in J. Med Chem, 20,714 (1977).

[2] = anti-secretory activity test (Shay et al); format: in vivo
Protocol: as §1

Row | SMILES | Stress Induced erosion (Senay & Levine) % inhibition [1] [%] | Anti-Secretory (Shay et al) % change in volt ([2]; Dose 10 mg/kg) [%] | Anti-Secretory (Shay et al) % change in volt ([2]; Dose 30 mg/kg) [%]
1 | C[n+]1ccccc1SCSc1cccc[n+]1C [Example 1, Methylene bis((1-methylpyridinium-2-yl)-thio) diiodide] | 71 | -32 | -62
2 | C[n+]1ccccc1SCCSc1cccc[n+]1C [Example 2, 1,2-Di-((1-methylpyridinium-2-yl)thio)ethane dibromide] | 67 | – | -48
